Experimental data taken from PubChem BioAssay AID489027 (Sanford-Burnham Center for Chemical Genomics, 2010).
Calls of active or inactive are those of the source. No rule for the calls is given here.

Target: UPR counterscreen luciferase reporter, luminescence
Test: luciferase reporter activation, UPR counterscreen line – cell-based, luminescence, counter-screen for adaptive UPR activator project, dose response (AID 489027)

Structure (SMILES) | EC50
CCOc1cc2c3c(c1)C(C)=CC(C)(C)N3C(=O)C2=O | inactive
FC(F)(F)c1nc2ccccc2n2c(-c3ccc(Cl)cc3)nnc12 | 13.6 µM
Cc1ccc(S(=O)(=O)N(CC(=O)N/N=C/c2ccc(F)cc2)c2cccc3cccnc23)cc1 | 1.92 µM
COc1ccc2nc(C)cc(SCC(=O)N/N=C/c3cccc4ccccc34)c2c1 | inactive
CCOc1cc(/C=C(\C#N)c2[nH]nc(N)c2C#N)ccc1O | > 80 µM (inactive)
O=C(Nc1nc2ccc(Cl)cc2s1)c1ccc(N2CCCCC2)c([N+](=O)[O-])c1 | inactive
Cc1ccc2nc(-c3ccc(NC(=S)NC4CC(C)(C)NC(C)(C)C4)cc3)sc2c1 | 9.04 µM
CCc1ccc2nc(N(CCCN(C)C)C(=O)c3ccc(S(=O)(=O)N4CCc5ccccc5C4)cc3)sc2c1 | 12.7 µM
C=CCN(CC=C)S(=O)(=O)c1ccc(C(=O)Nc2nc3c(s2)CCc2ccccc2-3)cc1 | > 80 µM (inactive)
CSC1=NC(C)(C)C=C(/C=C/c2ccc(Cl)cc2)N1 | 9.17 µM
COc1ccc(Cn2c(SCc3cc(C)ccc3C)nc3cc(OC)c(OC)cc3c2=N)cc1 | > 80 µM (inactive)
COc1cc2nc(N3CCN(c4cc(C)ccc4C)CC3)nc(N)c2cc1OC | 9.19 µM
COc1ccc2c(c1)NC(c1cc(Cl)cc(Cl)c1O)c1cccn1-2 (configuration not stated) | inactive
CCOc1ccccc1N=Cc1c(O)c2ccccc2oc1=O | 8.11 µM
O=C(COc1ccc(/C=N/NC(=O)c2cc3ccccc3o2)cc1Br)Nc1ccccc1 | 3.69 µM
O=C(NCC1CC1)c1cccc2c1C(=O)c1ccc(-c3ccc(OC(F)(F)F)cc3)cc1S2(=O)=O | > 80 µM (inactive)
CCc1ccc(NC(=O)C(CC)Sc2nc3cc4c(cc3c(=O)n2Cc2ccco2)OCO4)cc1 (configuration not stated) | > 80 µM (inactive)
Cn1c2ccccc2c2cc(/C=N/NC(=O)c3cc(O)ccc3O)ccc21 | 4.02 µM
Cc1ccc(C(C)C)c(OCc2ccc(C(=O)N/N=C/c3ccc(O)c(O)c3)cc2)c1 | 4.95 µM
COc1cc(/C=N/NC(N)=O)c(Br)cc1OCC(=O)Nc1ccccc1C | inactive
COc1ccc(C(CCNCc2ccc(F)cc2)c2ccc(F)cc2)cc1 (configuration not stated) | 13.6 µM
O=C1NC(=O)N(Cc2ccccc2Cl)C(=O)/C1=C/c1cccs1 | 13 µM
Cc1cnc(NC(=O)c2cc3c(C)nn(Cc4ccccc4Cl)c3s2)s1 | > 80 µM (inactive)
CCOC(=O)c1sc(NC(=S)NC(=O)c2ccccc2)c(C(=O)OCC)c1C | inactive

Structure (SMILES) | EC50
COc1ccc(NC(=O)C(=O)N/N=C\c2ccc(CNC(=O)C(=O)Nc3ccc(C)c(C)c3)o2)c(OC)c1 | 4.19 µM
CCc1ccc2[nH]c3nc(SCC(=O)NNC(=O)c4ccc(C(C)(C)C)cc4)nnc3c2c1 | inactive
COc1ccc(-c2csc3nc(-c4ccc(C)cc4)oc(=O)c23)cc1OC | > 80 µM (inactive)
Cn1nnnc1Sc1ncnc2scc(-c3ccc(Cl)cc3)c12 | 17.1 µM
CN(C)CCOc1ccc(-c2c(-c3ccccc3)sc3ccccc23)cc1 | 17 µM
Cc1ccc2nc(/C(C#N)=C/c3ccc(O)c(O)c3)[nH]c2c1 | 13.7 µM
O=C(CSc1nc2ccccc2c(=O)n1-c1ccccc1)N1CCc2ccccc21 | inactive
Oc1cccc2ccc(/C=C/c3ccc(Br)s3)nc12 | inactive
O=[N+]([O-])c1cccc(/C=C/c2ccc3cccc(O)c3n2)c1 | > 80 µM (inactive)
CC(C)Cn1c2c(c(=O)[nH]c1=O)C(C(F)(F)F)(C(F)(F)F)N=C(CCC1CCCCC1)N2 | inactive
COc1ccc(/C=N/Nc2nnc(-c3ccccc3)c(=O)[nH]2)cc1 | 15.6 µM
Cc1ccc(Nc2nc3ccc(Cl)cc3n3cnnc23)cc1F | inactive
Nc1nc(SCc2ccc(Cl)cc2Cl)nc2nc3c(cc12)CCCC3 | > 80 µM (inactive)
COc1cccc(C(=O)Oc2cc3c4c(c2)C(C)=CC(C)(C)N4C(=O)C3=O)c1 | 15.7 µM
c1ccc(Oc2c3ccccc3nc3ccccc23)cc1 | inactive
CCOc1cc(CNC(C)(C)CO)cc(Br)c1OCc1ccc(Cl)cc1Cl | > 80 µM (inactive)
COC(=O)Cc1csc(/N=C/c2c(O)n(-c3cccc(C(F)(F)F)c3)c(=O)c3ccccc23)n1 | > 80 µM (inactive)
O=C(/C=C/c1cc([N+](=O)[O-])ccc1OC(F)F)Nc1cccc([N+](=O)[O-])c1 | > 80 µM (inactive)
CCN=C1S/C(=C\c2cn(CC(=O)NCc3ccco3)c3ccccc23)C(=O)N1CC | > 80 µM (inactive)
CN(C)c1ccc(/C=N/NC(=O)c2ccc(NC(=O)c3ccccc3)cc2)cc1 | inactive
COc1ccccc1CCNC(=O)C1CCN(c2nnc(C)c3c(C)n(-c4ccc(C)cc4)nc23)CC1 | 18.1 µM
CC(C)(C)c1cc(-c2nc(N)nc(N)n2)c(O)c(C(C)(C)C)c1 | inactive
Cc1ccc(-c2nnn(CC(=O)N(Cc3cccs3)C(C(=O)NC3CCCCC3)c3ccco3)n2)o1 (configuration not stated) | > 80 µM (inactive)
